Assay results: patent publication US20090264433A1, “Compounds, Compositions and Methods Comprising Triazine Derivatives” (Institute for OneWorld Health, priority 2008, published 2009)
Structures can show the parent of a compound that is named as a salt.

Each compound was assayed against T1, CFTR channel in human colonic T84 cells (Homo sapiens, UniProt P13569) (assay: T84 assay (FLIPR membrane potential dye, forskolin/IBMX-stimulated CFTR)). Conditions: average of at least 2 runs unless annotated n = 1.
T1 construct: results in the phosphorylation and opening of CFTR anion channels; host or cells: human colonic T84 cells
Format: cell-based
Experimental: (§1) For example, Human colonic T84 cells can be acquired from the European Collection of Cell Cultures (ECACC) and grown in standard culture conditions as described by the supplier. On the day before assay 25,000 T84 cells per well are plated into standard black walled, clear bottom 384-well assay plates in standard growth medium consisting of DMEM:F12 with 10% FBS and incubated overnight. On the day of the assay the plates are washed using a standard assay buffer (HBSS with 10 mM Hepes) and incubated for 15 minutes in serum free cell culture medium before the addition of a commercially available membrane potential sensitive fluorescent dye (FLIPR Red membrane potential dye, Molecular Devices Corporation). T84 cells are incubated with the FLIPR Red membrane potential dye for 45 minutes in the presence and absence of test compound before being transferred to a commercially available fluorescence imaging plate reader (FLIPR384, Molecular Devices Corporation). Fluorescence levels are monitored continuously every second for 150 seconds; after an initial 10 second baseline, CFTR channel activity is stimulated through the addition of 10 μM forskolin in the presence of 100 μM of the phosphodiesterase inhibitor iso-butyl-methylxanthine (IBMX). Addition of the forskolin leads to the activation of intracellular adenylyl cylase 1, elevating cAMP levels and results in the phosphorylation and opening of CFTR anion channels. CFTR channel opening causes chloride ion efflux and subsequent depolarization of the cells, which is measured by an increase in fluorescence. CFTR inhibitor compounds prevent cell depolarization and the associated increase in fluorescence.
as §1, with “Human colonic” for “For example, Human colonic”, “T84 cells are acquired from” for “T84 cells can be acquired from”, “(ECACC) and are grown in” for “(ECACC) and grown in”

T1 sequence (P13569 whole entry): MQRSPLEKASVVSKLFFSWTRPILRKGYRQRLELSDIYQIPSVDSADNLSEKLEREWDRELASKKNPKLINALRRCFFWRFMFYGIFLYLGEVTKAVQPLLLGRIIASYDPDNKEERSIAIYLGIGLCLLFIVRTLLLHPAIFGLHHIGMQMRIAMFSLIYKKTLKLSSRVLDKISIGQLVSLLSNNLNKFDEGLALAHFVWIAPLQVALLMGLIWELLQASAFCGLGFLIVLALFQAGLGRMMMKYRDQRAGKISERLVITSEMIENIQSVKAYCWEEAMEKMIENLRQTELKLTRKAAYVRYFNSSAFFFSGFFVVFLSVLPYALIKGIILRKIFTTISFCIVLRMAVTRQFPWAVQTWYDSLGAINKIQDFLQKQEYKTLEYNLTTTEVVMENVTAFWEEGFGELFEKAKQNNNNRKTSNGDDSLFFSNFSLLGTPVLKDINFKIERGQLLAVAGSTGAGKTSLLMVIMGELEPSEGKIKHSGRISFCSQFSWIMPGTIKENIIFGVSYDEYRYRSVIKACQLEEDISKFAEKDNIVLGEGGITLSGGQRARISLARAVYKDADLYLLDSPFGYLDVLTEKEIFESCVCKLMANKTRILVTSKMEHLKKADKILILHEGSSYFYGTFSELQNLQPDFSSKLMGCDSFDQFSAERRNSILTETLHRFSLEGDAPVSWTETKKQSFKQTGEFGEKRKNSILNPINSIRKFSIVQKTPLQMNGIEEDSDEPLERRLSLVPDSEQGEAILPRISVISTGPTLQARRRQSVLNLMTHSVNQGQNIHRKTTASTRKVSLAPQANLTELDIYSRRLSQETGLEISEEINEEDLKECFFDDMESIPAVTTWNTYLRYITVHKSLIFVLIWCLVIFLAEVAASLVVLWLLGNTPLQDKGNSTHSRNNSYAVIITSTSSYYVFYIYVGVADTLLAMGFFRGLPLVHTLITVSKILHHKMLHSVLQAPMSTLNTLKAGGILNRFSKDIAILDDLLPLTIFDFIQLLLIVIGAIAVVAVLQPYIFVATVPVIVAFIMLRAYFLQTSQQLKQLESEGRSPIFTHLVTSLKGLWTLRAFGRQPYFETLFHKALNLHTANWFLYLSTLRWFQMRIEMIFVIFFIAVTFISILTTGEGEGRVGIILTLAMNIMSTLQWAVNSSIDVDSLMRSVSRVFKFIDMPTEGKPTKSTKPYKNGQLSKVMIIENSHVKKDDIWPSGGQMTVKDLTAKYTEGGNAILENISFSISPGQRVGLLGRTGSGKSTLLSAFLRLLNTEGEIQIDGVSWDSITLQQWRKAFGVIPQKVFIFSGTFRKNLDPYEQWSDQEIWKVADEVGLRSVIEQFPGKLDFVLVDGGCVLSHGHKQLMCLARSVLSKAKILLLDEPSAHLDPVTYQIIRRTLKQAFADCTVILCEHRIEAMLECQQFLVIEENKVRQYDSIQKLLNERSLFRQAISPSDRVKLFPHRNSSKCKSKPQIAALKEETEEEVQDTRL

Point of comparison: CN(C)c1cccc(COc2ncc(-c3cc(Cl)c(O)c(Cl)c3)nn2)c1 [Compound 119, 2,6-dichloro-4-(3-(3-(dimethylamino)benzyloxy)-1,2,4-triazin-6-yl)phenol], IC50 3.4 µM. Against it:
- Oc1c(Cl)cc(-c2cnc(OCCc3ccc(Cl)cc3)nn2)cc1Cl [Compound 112, 2,6-dichloro-4-(3-(4-chlorophenethoxy)-1,2,4-triazin-6-yl)phenol] — 20-fold lower, 0.17 µM
- Oc1c(Cl)cc(-c2cnc(OCc3ccc(Cl)cc3)nn2)cc1Cl [Compound 113, 2,6-dichloro-4-(3-(4-chlorobenzyloxy)-1,2,4-triazin-6-yl)phenol] — 2.6-fold lower, 1.3 µM
- Oc1c(Cl)cc(-c2cnc(OCc3cccc(Cl)c3Cl)nn2)cc1Cl [Compound 114, 2,6-dichloro-4-(3-(2,3-dichlorobenzyloxy)-1,2,4-triazin-6-yl)phenol] — within 1.5-fold, 3.36 µM
- Oc1c(Cl)cc(-c2cnc(OCCc3cccc4ccccc34)nn2)cc1Cl [Compound 115, 2,6-dichloro-4-(3-(2-(naphthalen-1-yl)ethoxy)-1,2,4-triazin-6-yl)phenol] — 9.7-fold lower, 0.35 µM
- Oc1c(Cl)cc(-c2cnc(OCc3cccc4ccccc34)nn2)cc1Cl [Compound 116, 2,6-dichloro-4-(3-(naphthalen-1-ylmethoxy)-1,2,4-triazin-6-yl)phenol] — 1.8-fold lower, 1.89 µM
- Oc1c(Cl)cc(-c2cnc(OCCc3ccc(Br)cc3)nn2)cc1Cl [Compound 117, 4-(3-(4-bromophenethoxy)-1,2,4-triazin-6-yl)-2,6-dichlorophenol] — 5.6-fold lower, 0.61 µM
- Oc1c(Br)cc(-c2cnc(OCc3cnc(Br)s3)nn2)cc1Br [Compound 118, 2,6-dibromo-4-(3-((2-bromothiazol-5-yl)methoxy)-1,2,4-triazin-6-yl)phenol] — within 1.5-fold, 3.23 µM
- Oc1c(Cl)cc(-c2cnc(NCc3cccc(Cl)c3Cl)nn2)cc1Cl [Compound 121, 2,6-Dichloro-4-(3-(2,3-dichlorobenzylamino)-1,2,4-triazin-6-yl)phenol] — 3.9-fold higher, 13.1 µM
- Oc1c(Cl)cc(-c2cnc(OCCNCc3ccccc3)nn2)cc1Cl [Compound 124, 4-(3-(2-(benzylamino)ethoxy)-1,2,4-triazin-6-yl)-2,6-dichlorophenol] — 1.7-fold lower, 1.98 µM
- Oc1c(Cl)cc(-c2cnc(OCCNc3ccccc3)nn2)cc1Cl [Compound 125, 2,6-dichloro-4-(3-(2-(phenylamino)ethoxy)-1,2,4-triazin-6-yl)phenol] — 7.6-fold higher, 25.8 µM
- O=C(c1cccc(C(F)(F)F)c1)N1CCN(Cc2cc(Cl)ccc2OCc2ncc(-c3cc(Br)c(O)c(Br)c3)nn2)CC1 [Compound 126, (4-(5-chloro-2-((6-(3,5-dibromo-4-hydroxyphenyl)-1,2,4-triazin-3-yl)methoxy)benzyl)piperazin-1-yl)(3-(trifluoromethyl)phenyl)methanone] — 1.6-fold higher, 5.44 µM
- Oc1c(Cl)cc(-c2cnc(OCc3ccccc3F)nn2)cc1Cl [Compound 127, 2,6-dichloro-4-(3-(2-fluorobenzyloxy)-1,2,4-triazin-6-yl)phenol] — 1.6-fold higher, 5.46 µM
- CC1(C)Cc2cccc(OCc3ncc(-c4cc(Br)c(O)c(Br)c4)nn3)c2O1 [Compound 128, 2,6-dibromo-4-(3-((2,2-dimethyl-2,3-dihydrobenzofuran-7-yloxy)methyl)-1,2,4-triazin-6-yl)phenol] — 8.5-fold higher, 28.8 µM
- Oc1c(Br)cc(-c2cnc(-c3cccc(Oc4ccccc4)c3)nn2)cc1Br [Compound 129, 2,6-dibromo-4-(3-(3-phenoxyphenyl)-1,2,4-triazin-6-yl)phenol] — 7.3-fold higher, 24.8 µM
- Oc1c(Br)cc(-c2cnc(Cc3cccc4ccccc34)nn2)cc1Br [Compound 130, 2,6-dibromo-4-(3-(naphthalen-1-ylmethyl)-1,2,4-triazin-6-yl)phenol] — 8.5-fold higher, 28.9 µM
- O=[N+]([O-])c1ccccc1SCc1ncc(-c2cc(Br)c(O)c(Br)c2)nn1 [Compound 131, 2,6-dibromo-4-(3-((2-nitrophenylthio)methyl)-1,2,4-triazin-6-yl)phenol] — 4.4-fold higher, 14.8 µM
- COc1ccc(CNc2ncc(-c3cc(Cl)c(O)c(Cl)c3)nn2)cc1 [Compound 132, 2,6-dichloro-4-(3-(4-methoxybenzylamino)-1,2,4-triazin-6-yl)phenol] — 3.6-fold higher, 12.1 µM
- Oc1c(Cl)cc(-c2cnc(NCc3ccc(Cl)c(Cl)c3)nn2)cc1Cl [Compound 133, 2,6-dichloro-4-(3-(3,4-dichlorobenzylamino)-1,2,4-triazin-6-yl)phenol, formate salt] — 7-fold higher, 23.7 µM
- Oc1c(Cl)cc(-c2cnc(NCc3ccc(Cl)cc3Cl)nn2)cc1Cl [Compound 134, 2,6-dichloro-4-(3-(2,4-dichlorobenzylamino)-1,2,4-triazin-6-yl)phenol, formate salt] — 2.8-fold higher, 9.65 µM
- Oc1c(Cl)cc(-c2cnc(NCc3ccc(Cl)cc3)nn2)cc1Cl [Compound 135, 2,6-dichloro-4-(3-(4-chlorobenzylamino)-1,2,4-triazin-6-yl)phenol] — 1.8-fold higher, 6.14 µM
- O=S1(=O)CCN(Cc2ccc(COc3ncc(-c4cc(Cl)c(O)c(Cl)c4)nn3)cc2)CC1 [Compound 136, formate salt] — 5.4-fold higher, 18.3 µM
- CN1CCN(c2ccc(CNc3ncc(-c4cc(Cl)c(O)c(Cl)c4)nn3)cc2)CC1 [Compound 137, 2,6-dichloro-4-(3-(4-(4-methylpiperazin-1-yl)benzylamino)-1,2,4-triazin-6-yl)phenol, formate salt] — 6.3-fold higher, 21.3 µM
- CN(CCOc1ncc(-c2cc(Cl)c(O)c(Cl)c2)nn1)Cc1ccccc1 [Compound 138, 4-(3-(2-(benzyl(methyl)amino)ethoxy)-1,2,4-triazin-6-yl)-2,6-dichlorophenol] — 5.6-fold higher, 18.9 µM
- CC(C)(C)OC(=O)N1CCC(COc2ncc(-c3cc(Cl)c(O)c(Cl)c3)nn2)(c2ccccc2)CC1 [Compound 139, tert-butyl 4-((6-(3,5-dichloro-4-hydroxyphenyl)-1,2,4-triazin-3-yloxy)methyl)-4-phenylpiperidine-1-carboxylate] — within 1.5-fold, 3.04 µM
- CN(C)c1ccccc1COc1ncc(-c2cc(Cl)c(O)c(Cl)c2)nn1 [Compound 140, 2,6-dichloro-4-(3-(2-(dimethylamino)benzyloxy)-1,2,4-triazin-6-yl)phenol] — 5.7-fold higher, 19.4 µM
- Oc1c(Cl)cc(-c2cnc(OCc3ccc(CNCc4cccc(Cl)c4Cl)cc3)nn2)cc1Cl [Compound 141, 2,6-dichloro-4-(3-(4-((2,3 —dichlorobenzylamino)methyl)benzyloxy)-1,2,4-triazin-6-yl)phenol] — within 1.5-fold, 3.81 µM
- O=Cc1ccc(COc2ncc(-c3cc(Cl)c(O)c(Cl)c3)nn2)cc1 [Compound 142, 4-((6-(3,5-dichloro-4-hydroxyphenyl)-1,2,4-triazin-3-yloxy)methyl)benzaldehyde] — 3.1-fold higher, 10.7 µM
- Oc1c(Cl)cc(-c2cnc(OCc3ccc(CN4CCN(c5ccccc5)CC4)cc3)nn2)cc1Cl [Compound 143, 2,6-dichloro-4-(3-(4-((4-phenylpiperazin-1-yl)methyl)benzyloxy)-1,2,4-triazin-6-yl)phenol] — within 1.5-fold, 3.75 µM
- O=C(O)c1ccccc1N1CCN(Cc2ccc(COc3ncc(-c4cc(Cl)c(O)c(Cl)c4)nn3)cc2)CC1 [Compound 144, 2-(4-(4-((6-(3,5-dichloro-4-hydroxyphenyl)-1,2,4-triazin-3-yloxy)methyl)benzyl)piperazin-1-yl)benzic acid] — 8.4-fold higher, 28.6 µM
- CC(C)(C)OC(=O)N1CCN(Cc2ccc(COc3ncc(-c4cc(Cl)c(O)c(Cl)c4)nn3)cc2)CC1 [Compound 145, tert-butyl 4-(4-((6-(3,5-dichloro-4-hydroxyphenyl)-1,2,4-triazin-3-yloxy)methyl)benzyl)piperazine1-carboxylate, ammonium salt] — 2.2-fold lower, 1.55 µM
- Oc1c(Cl)cc(-c2cnc(OCc3ccc(F)cc3)nn2)cc1Cl [Compound 146, 2,6-dichloro-4-(3-(4-fluorobenzyloxy)-1,2,4-triazin-6-yl)phenol] — 1.5-fold higher, 5.21 µM
- Oc1c(Cl)cc(-c2cnc(OCc3ccc(F)c(F)c3)nn2)cc1Cl [Compound 147, 2,6-dichloro-4-(3-(3,4-difluorobenzyloxy)-1,2,4-triazin-6-yl)phenol] — within 1.5-fold, 2.83 µM
- Oc1c(Cl)cc(-c2cnc(OCc3ccc(F)cc3F)nn2)cc1Cl [Compound 148, 2,6-dichloro-4-(3-(2,4-difluorobenzyloxy)-1,2,4-triazin-6-yl)phenol] — within 1.5-fold, 3.97 µM
